Experiment [1] deals with antennae of Coleomegilla maculata. Nature of the experiment: Electroantennogram (EAG) responses of Coleomegilla maculata antennae. The conditions noted are these: for EAG response: C. maculata antennae, both sexes; for dose eliciting significant EAG responses from female antennae: C. maculata female antennae; for dose eliciting significant EAG responses from female antennae / EAG response threshold of female antennae / dose at which EAG of male antennae reached saturation: dose-response; for dose at which EAG saturation occurred / minimum dose for a significant EAG response: both male and female antennae; for EAG response threshold of female antennae: C. maculata female antennae versus male. On the procedure: Adults of both sexes were anesthetized by placing them at −20° C., then the abdomen and elytra of adults were cut off with a pair of fine scissors. Dissecting tools were rinsed with acetone several times between dissections to avoid cross-contamination. The dissected parts were extracted in a 1-ml vial containing 500 μl of hexane for two hours. Ten males and females were dissected and extracted. The extracts were concentrated to 200 μl under a mild stream of N2. Approximately 20 μl of the extracts, equivalent to one adult, was used for the EAG tests.
(§1) Both sexes of C. maculata were handled vigorously, and pressed against a piece of filter paper (Whatman, No. 1), resulting in reflex bleeding production of orange colored fluid excreted through the joints of the legs, that was absorbed into the filter paper. Fluids from 20 beetles were collected. The filter paper used for the collection was then cut into small pieces and placed in a 2-ml vial and extracted with 200 μl of hexane for one hour. A volume of 10 μl of the concentrated extract was used for EAG tests.
(§2) Corn (Pioneer, Hybrid 3489) was grown in the greenhouse under approx. 25° C. and 75% humidity, with natural light supplemented by 400 Watt high pressure sodium lights. The three-leaf stage of plants was used for volatile collections, because this life stage is infested by corn leaf aphids (Bing, J. W., et al., 1992, J. Econ. Entomol.21:223-234) and it is also a stage searched by these predatory species. Corn leaves were removed from plants, and ca. 15 g placed in a 0.5-1 glass collector with two openings on each side. A stream of purified air passing through a freshly activated charcoal filter was blown into the inlet of the collector, through the corn leaves, then exited through the outlet connected to a Tenax trap. The trap consisted of a Pasteur pipette (5 cm long and 0.5 cm diameter) packed with 300 mg of Tenax (20-35 mesh, Alltech, Ill.). The flow rate of the air was 150 ml/min from the outlet of the Tenax trap, and the volatiles were collected for 18 hours. The trapped volatiles were eluted with HPLC-grade hexane. The extracts from three collections were combined and concentrated to 100 μl. Ten microliters of extracts were used for each EAG test.
(§3) Dried seeds and flowers of catnip, Nepeta cataria, were purchased from a local pet store. For EAG tests, approx. 0.2 mg of dried plant material was homogenized, then extracted by adding 500 μl of hexane. The extract was poured through a funnel with filter paper (Whatman No.1), and the residue was discarded. The extract was concentrated to 100 μl, under a mild stream of N2. The extract was then stored at −20° C. until used in EAG tests.
EAG recordings were made by connecting an electrogel-filled (Spectro 360, Parker Laboratory, New Jersey) glass-pipette Ag/AgCl electrode to the head of an excised beetle or lacewing. A recording electrode filled with the same electrogel connected to a high-impedance DC amplifier with automatic baseline drift compensation, was placed in contact with the tip of their antennae (intact). Antennal responses to various chemical stimuli were first recorded for a series of commercial synthetic compounds representing known corn leaf volatiles. Then, male and female body extracts of C. maculata, reflex bleeding extracts, aphid alarm pheromone and catnip extracts were tested. A second series of EAG tests was then conducted including dose-response series using selected EAG-active compounds from the first test. Serial dilutions of the tested compounds were made in redistilled HPLC-grade hexane at dosages ranging from 0.1 μg to 1000 μg, except α-terpineol, for which methylene chloride was used. The tested compounds and extracts were applied to filter-paper strips (0.5×2.5 cm, Whatman No.1) in 10 μl of solvent, except as otherwise noted. The filter-paper strips were inserted into Pasteur pipettes (15 cm long). Control puffs of air were applied after each puff of a test stimulus. […]

Experiment [2] deals with antennae of Chrysoperla carnea. Nature of the experiment: Electroantennogram (EAG) responses of Chrysoperla carnea antennae. The conditions noted are these: for EAG response: C. carnea antennae. On the procedure: as §1, §2, §3
EAG recordings were made by connecting an electrogel-filled (Spectro 360, Parker Laboratory, New Jersey) glass-pipette Ag/AgCl electrode to the head of an excised beetle or lacewing. A recording electrode filled with the same electrogel connected to a high-impedance DC amplifier with automatic baseline drift compensation, was placed in contact with the tip of their antennae (intact). Antennal responses to various chemical stimuli were first recorded for a series of commercial synthetic compounds representing known corn leaf volatiles. Then, male and female body extracts of C. maculata, reflex bleeding extracts, aphid alarm pheromone and catnip extracts were tested. A second series of EAG tests was then conducted including dose-response series using selected EAG-active compounds from the first test. Serial dilutions of the tested compounds were made in redistilled HPLC-grade hexane at dosages ranging from 0.1 μg to 1000 μg, except α-terpineol, for which methylene chloride was used. The tested compounds and extracts were applied to filter-paper strips (0.5×2.5 cm, Whatman No.1) in 10 μl of solvent, except as otherwise noted. The filter-paper strips were inserted into Pasteur pipettes (15 cm long). Control puffs of air were applied after each puff of a test stimulus. The response to the air puff was used to normalize beetle or lacewing responses relative to the tested stimuli. The average EAG response to the air puff from antennae of C. maculata and C. carnea was 0.05±0.003 mV (n=30) and 0.02±0.001 mV (n=27), respectively. The relative EAG response of each stimulus was normalized by dividing the amplitude of the test stimulus by the mean of the response to the control puff. The sequence of exposure of each stimulus to each antenna was randomly defined.

Experiment [3] concerns Chrysoperla carnea. Kind of experiment: Field trapping test in an alfalfa field, C. carnea catches. The class given is in vivo. The conditions noted are these: traps baited with 50 mg. As for the experimental part: (§4) A field trapping test was conducted in an alfalfa field in Ames, Iowa. Synthetic compounds at a dose of 50 mg were prepared in hexane or methylene chloride. Medical peerless cotton rolls (5 cm long, 100% cotton) were used as dispensers, and the traps used were similar to the Rebell Trap (Great Lakes IPM, Mich.). The trap was hung from the bent end of an electric farm post, 1.2 m above the ground. Within a replicate (N=3), traps were set at least 10 m apart. The traps were checked daily, and trap position within a series was randomized to minimize the effects of habitat heterogenity.

Experiment [4] concerns Coleomegilla maculata. Kind of experiment: Field trapping test in an alfalfa field, C. maculata catches. To be noted: traps baited with 50 mg. The class given is in vivo. On the procedure: as §4
Experiment [5] concerns C. cognata. To be noted: Boo et al. 1998; cited from earlier work.
Experiment [6] deals with Harmonia axyridis. The conditions noted are these: behavioral test; cited from earlier work.
The test system of experiment [7] is Coccinella septempunctata. To be noted: Nakamuta 1991; cited from earlier work.
Experiment [8] concerns Hippodamia convergens. To be noted: behavioral test; cited from earlier work.
Experiment [9] concerns C. carnea. To be noted: earlier study, Flint et al. 1979; cited from earlier work.

The source of these data is patent US6562332B2, “Attractants of beneficial insects” (Iowa State University Research Foundation, Inc., priority 1999, dated 2003).

Entries after “also recorded” stand apart in the source; their conditions may differ.

For `C=CC(O)CCCCC` (stereo not shown) [1-octen-3-ol, 1-Octen-3-ol], the EAG response entry in experiment [1] is “EAG responses”. In addition, the “difference in EAG response between male and female antennae” value in [1] (C. maculata, male relative to female) is “significantly higher EAG response; also recorded: Sexual differences”.
Turning to `OCCc1ccccc1` [2-phenylethanol, 2-Phenylethanol], the EAG response entry in experiment [2] (both sexes) is on record as “significant response; also recorded: highly sensitive; also recorded: most strongly”. For the same compound, the “dosage eliciting significant EAG responses” value in experiment [2] (C. carnea, antennae of both sexes) was found to be 10 µg. Besides, the “trap catches / attraction of C. carnea in field test” value in experiment [3] is reported as “significantly attracted; also recorded: highly attractive”. Also, in [1], the EAG response result is on record as “significantly higher; also recorded: highest EAG responses” and the dose eliciting significant EAG responses from female antennae was 10 µg. Also, the “trap catches / attraction of C. maculata in field test” value in experiment [4] is reported as “significantly attracted; also recorded: highly attractive”.
Take `CC1=CO[C@@H](O)[C@H]2[C@@H]1CC[C@@H]2C` [(1R,4aS,7S,7aR)-nepetalactol, reference compound]: the EAG response entry in [2] (both sexes) was “responded; also recorded: significant EAG responses”. In addition, in experiment [1], the EAG response result is “responded; also recorded: significant EAG responses”. In experiment [1] (C. maculata), the “dose at which EAG saturation occurred” value worked out at 100 µg and the “minimum dose for a significant EAG response” value was found to be 100 µg.
Consider `CC1=COC(=O)[C@H]2[C@@H]1CC[C@@H]2C` [(4aS,7S,7aR)-nepetalactone, reference compound], for which, in [2] (both sexes), the EAG response result is on record as “responded; also recorded: significant EAG responses”. In experiment [2] (C. carnea female antennae), the “EAG response of female antennae” value is recorded as “greater”. Besides, in [1], the EAG response entry is listed as “responded; also recorded: relatively higher EAG response; also recorded: significant EAG responses” and the “EAG response threshold of female antennae” value (“EAG response threshold” for short) is reported as “higher thresholds”. In experiment [1] (C. maculata), the “dose at which EAG saturation occurred” value came to 100 µg and the “minimum dose for a significant EAG response” value came out at 100 µg. Moreover, the “attraction of adult C. cognata in the field” value in experiment [5] is on record as “attracted”.
In the case of `C=CC(=C)CC/C=C(\C)CCC=C(C)C` [(E)-β-farnesene, (E)-β-Farnesene], the EAG response entry in [2] (both sexes) is on record as “significant response; also recorded: increased with increasing doses; also recorded: highly sensitive; also recorded: most strongly”. The “dose of highest EAG response” value in [2] (C. carnea, both sexes, dose-response) was 1000 µg. In experiment [1], the EAG response entry was “significantly higher; also recorded: highest EAG responses”. For the same compound, in [1] (C. maculata male antennae), the “EAG response of male antennae” value was “as high as those in response to aphid sex pheromone” and the “dose at which EAG of male antennae reached saturation” value stood at 100 µg. Also, in [6], the “attraction of Harmonia axyridis” value is listed as “attracted”. Moreover, in experiment [7], the “searching behaviors of Coccinella septempunctata” value is listed as “does not elicit searching behaviors”. In addition, in experiment [4], the “trap catches / attraction of C. maculata in field test” value was “no differences in catches”. In [8], the “attraction of Hippodamia convergens” value is listed as “attracted”.
As to `CC/C=C\CCO` [(Z)-3-hexenol, (Z)-Hexenol], the EAG response entry in [2] (both sexes) is reported as “relatively lower EAG responses”. Moreover, in [1], the EAG response entry was “EAG responses” and the “EAG response threshold” value is reported as “higher thresholds”.
For the compound `CCCCCCO` [hexanol, 1-Hexanol], the EAG response entry in experiment [1] is “EAG responses”.
`CC1=CCC(C(C)(C)O)CC1` (stereo not drawn) [α-terpineol, α-Terpineol]: in experiment [2] (both sexes), the EAG response entry is “relatively lower EAG responses”. For the same compound, in experiment [1], the EAG response entry is reported as “significantly higher; also recorded: highest EAG responses”, the “EAG response threshold” value is “higher thresholds” and the dose eliciting significant EAG responses from female antennae came to 10 µg. Further, the “dose at which EAG of male antennae reached saturation” value in [1] (C. maculata male antennae) was found to be 100 µg. Also, the “trap catches / attraction of C. maculata in field test” value in experiment [4] is listed as “Significant catches”. The “trap catches / attraction of C. maculata in field test” value in experiment [4] (listed as a-terpineol) was “attracted”.
For `C=C1CC/C=C(\C)CC[C@@H]2[C@@H]1CC2(C)C` [β-caryophyllene, β-Caryophyllene], the EAG response result in experiment [2] (both sexes) is on record as “relatively low EAG response”; in [1] it was “highest EAG responses”. For the same compound, the “trap catches / attraction of C. carnea in field test” value in [3] is “low catches”. In [9], the “attraction of adults of C. carnea in the field” value is “acts as an attractant”.
